From patent US20060084697A1, “Pi3k antagonists as radiosensitizers” (priority 2002, published 2006)

How the values were obtained:
[1] = tested on: GL261 tumors; test: Tumor volume assessment, growth delay, GL261; format: in vivo, C57BL/6 mice
Procedure: GL261 tumors were generated by subcutaneous injection of 10^6 cells into the right thighs of C57BL/6 mice as described in Example 6. […] An equal number of large and intermediate size tumors were present in each group. GL261 tumor-bearing mice were treated with 24 Gy ionizing radiation administered in 8 fractionated doses over 10 days. LY294002 was administered at 3 mg/kg by intraperitoneal injection 15 minutes prior to irradiation on days 1, 3, 5, and 7 of radiation therapy. Control mice received identical doses and schedules of either LY294002 alone or radiation alone. Twice each week, tumor volumes were measured using skin calipers as previously described (Grugel et al., 1995; […] et al., 1998; Staba et al., 1998). Briefly, tumor volumes were calculated using the formula: a×b×c/2, where a=maximal width dimension, b=maximal length dimension, and c=maximal depth dimension, which was derived from the formula for calculating the volume of an ellipsoid (πd^3/6). Data were calculated as the percent of original (day 0) tumor volume and graphed as fractional tumor volume plus or minus one standard deviation for each treatment group. Growth delay was defined as the number of days required for tumors to reach a volume of 1 cm^3. Untreated control tumors reached 1 cm^3 at 7 days.

[2] = tested on: Akt; test: Western blot of radiation-induced Akt phosphorylation in HUVEC; format: cell-based, human; settings: HUVEC
Excerpt: HUVEC cells were obtained from Clonetics and were maintained in EBM-2 medium supplemented with EGM™-2MV SINGLEQUOTS® (Bio-Whittaker, Inc., Walkersville, Md., United States of America). An Eldorado-8 Cobalt-60 teletherapy unit (Atomic Energy of Canada Limited, Mississauga, Ontario, Canada) was used to irradiate endothelial cell cultures at a dose rate of 0.84 Gy per minute. Delivered doses ranging from 0 to 12 Gy were verified by use of thermoluminescence detectors.
In order to determine if Akt is phosphorylated in response to irradiation, cultured HUVEC cells were serum starved for 4 hours, exposed to irradiation, and the phosphorylation of Akt was examined in cell extracts by Western blotting. Total cellular protein was extracted after radiation treatment as follows. Cells were counted and then washed with iced-cold PBS twice before the addition of lysis buffer (M-PER™ mammalian protein extraction reagent; Pierce Chemical Company, Rockford, Ill., United States of America; or 20 mM Tris, 150 mM NaCl, 1 mM EDTA, 1% Triton X-100, 2.5 mM sodium pyrophosphate, 1 mM phenylmethylsulphonyl fluoride (PMSF), and […] Leupeptin (Roche Molecular Biochemicals, Indianapolis, Ind., United States of America)). Protein concentrations were quantified using the Biorad method (Bradford, 1976). 50 μg protein was loaded into each well of an 8% sodium dodecyl […]-polyacrylamide gel electrophoresis (SDS-PAGE) gel and separated by electrophoresis. The proteins were subsequently transferred onto 0.45 μm nitrocellulose membranes. Membranes were blocked by incubation for 2 hours at room temperature in phosphate buffered saline-Triton (PBST: 0.9% NaCl, 0.3% Triton X-100, pH 7.4) containing 10% nonfat dry milk.
The presence of Akt protein on the membrane was determined as follows. The membranes were incubated with a 1:1000 dilution of rabbit antibody directed against either phosphorylated (Ser473) or non-phosphorylated human Akt overnight at 4° C. Rabbit antibodies were obtained from Cell Signaling Technology, Beverly, Mass., United States of America. The blots were then washed with PBST to remove unbound rabbit antibodies. The washed blots were then incubated for 1 hour at room temperature with a donkey anti-rabbit IgG secondary antibody (Amersham Biosciences, Piscataway, N.J., United States of America) diluted 1:1000 in PBST. The blots were again washed with PBST to remove unbound donkey antibodies. The presences of both phosphorylated and non-phosphorylated human Akt were determined by chemiluminescent detection of donkey anti-rabbit/rabbit anti-human Akt complexes using the ECL™ detection system (Amersham Biosciences) according to the manufacturer's protocol, followed by autoradiography. […]

Question: How did the “growth delay: days for tumors to reach 1 cm^3” value ([1]; 3 mg/kg i.p. 15 minutes prior to irradiation on days 1, 3, 5, 7, 24 Gy in 8 fractions) turn out when `O=c1cc(N2CCOCC2)oc2c(-c3ccccc3)cccc12` [LY294002, 2-(4-Morpholinyl)-8-phenyl-4H-1-benzopyran-4-one] was run?
Answer: > 15 days

Question: And the “growth delay: days for tumors to reach 1 cm^3” value ([1]; 3 mg/kg i.p. on days 1, 3, 5, 7, alone, untreated 7 days)?
Answer: 9 days

Question: And the “total Akt levels” value ([2]; wortmannin 4 nM or LY294002 2 μM)?
Answer: no effect

Question: What about the “Akt phosphorylation following irradiation” value ([2]; wortmannin 4 nM or LY294002 2 μM added 30 minutes prior to irradiation, 3 Gy) of the same compound?
Answer: strong inhibition
